Reference: patent US20260347353A1, “INDOLIZINE DERIVATIVES FOR TREATING CANCER” (Antares Therapeutics, Inc., priority 2022, published 2026)

Columns and labels:
p53 Y220C = p53 Y220C (Homo sapiens, UniProt P04637, Y220C); test: Luciferase Reporter Assay, p53 Y220C (NCIH1299 cells with inducible p53 Y220C and p53 response element-luciferase); format: cell-based; conditions: 6 hour compound treatment, read-out: Luc P53 Y220C AC50
Protocol: Luciferase reporter (Luc) driven by p53 response element (LTV-p53-Luc (SKU #: LTLR007); G&P Biosciences) and inducible p53 Y220C construct (Tet-One inducible expression system; Takara) were stably expressed in NCIH1299 cells by lentiviral transduction. The cells were then used for p53 reporter assay. 5,000 cells were seeded in each well of 384 plate and cultured in 0.5 ug/mL doxycycline (D3072; Sigma) containing medium for 24 hours before compound treatment. After 6 hour of compound treatment, equal volume of One-Glo reagent (E6110; Promega) was added to each well and the plate was incubated for 5 minutes with shaking at room temperature. The luciferase activity was immediately measured with PheraStar microplate reader. Luciferase activity was stimulated by 10 uM of a tool compound as positive control and AC50 was calculated.

[1] = molecular target: T1, p53 Y220C mutant protein (amino acid residues 94-293) (Homo sapiens, UniProt P04637, Y220C); test: Surface Plasmon Resonance (SPR) assay, p53 Y220C Kd_kinetic; conditions: multi-cycle kinetics, 16 or 20 °C, pH 7.5, 1:1 binding model
T1 construct: p53 Y220C mutant protein (amino acid residues 94-293)
Protocol: SPR experiments are performed on a Biacore 8K instrument. […] Compounds are 2-fold, 7-point serial diluted; the top concentration varies depending on the potency. Compound binding affinities are measured in the multi-cycle kinetics mode, at 30 μL/min flow rate with 60 seconds association time and 120 seconds dissociation time. The running buffer contains 50 mM Tris, pH 7.5, 100 mM NaCl, 1 mM DTT, 0.01% Brij35, 0.05% Tween-20 and 1% DMSO. The assay temperature is maintained at 16 or 20 °C and data are fit into the 1:1 binding model using the Biacore Insight Evaluation software.

NUGC3 cells (p53 Y220C) = test: Cell Proliferation Assay (CellTiter-Glo), NUGC3 p53 Y220C; format: cell-based; conditions: Homo sapiens, NUGC-3, 120 h, 5 days, read-out: CTG NUGC3 P53 Y220C IC50
Protocol: Inducible p53 Y220C and R273H constructs (Tet-One inducible expression system; Takara) were stably expressed in NCIH1299 cells by lentiviral transduction. NUGC3, A549, BxPC3, T3M4, HuH7, HCC2935, MFE296, NCIH1299, NCIH1299-inducible p53 Y220C, and NCIH1299-inducible p53 R273H cell lines were used for cell proliferation assay. 250-500 cells were seeded in each well of 384 plate and then compounds were dispensed into each well using Echo or Tecan. After 5 days of incubation, equal volume of CellTiter-Glo reagent (G7570; Promega) was added into each well and the plate was incubated at room temperature for 10 minutes with shaking. The luminescent signal was measured by PheraStar microplate reader and IC50 was calculated.

T1 sequence (P04637 94-293, stated change not applied): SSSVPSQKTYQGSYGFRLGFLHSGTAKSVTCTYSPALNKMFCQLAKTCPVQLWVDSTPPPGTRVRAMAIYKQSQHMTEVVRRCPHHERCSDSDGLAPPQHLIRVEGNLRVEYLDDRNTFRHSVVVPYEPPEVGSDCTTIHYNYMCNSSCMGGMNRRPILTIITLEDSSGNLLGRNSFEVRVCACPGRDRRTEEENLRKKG

Compound	AC50 (p53 Y220C) [nM]	Kd [1] [nM]	IC50 (NUGC3 cells (p53 Y220C)) [nM]
CN1CC[C@@H](Nc2cccn3c(SC(F)(F)F)c(-c4noc(CNC(=O)c5cnn(C)c5)n4)cc23)[C@@H](F)C1 [Example 85]	< 750	< 10	< 750
CN1CC[C@@H](Nc2cccn3c(SC(F)(F)F)c(-c4noc([C@H](CO)NC(=O)C5CC5)n4)cc23)[C@@H](F)C1 [Example 55, N-[(1S)-1-[3-(8-{[(3S,4R)-3-fluoro-1-methylpiperidin-4-yl]amino}-3-[(trifluoromethyl)sulfanyl]indolizin-2-yl)-1,2,4-oxadiazol-5-yl]-2-hydroxyethyl]cyclopropanecarboxamide]	≥ 3000	10 to 100	≥ 3000
CN1CC[C@@H](Nc2cccn3c(SC(F)(F)F)c(-c4noc(CNC(=O)c5cnc(N)o5)n4)cc23)[C@@H](F)C1 [Example 77]	< 750	< 10	< 750
CN1CC[C@@H](Nc2cccn3c(SC(F)(F)F)c(-c4noc(CNC(=O)c5cncs5)n4)cc23)[C@@H](F)C1 [Example 70]	< 750	< 10	< 750
Cc1ncc(C(=O)NCc2nc(-c3cc4c(N[C@@H]5CCN(C)C[C@@H]5F)cccn4c3SC(F)(F)F)no2)o1 [Example 71]	< 750	< 10	< 750
CN1CC[C@@H](Nc2cccn3c(SC(F)(F)F)c(-c4noc(CNC(=O)c5ccno5)n4)cc23)[C@@H](F)C1 [Example 76]	< 750	< 10	750 to 1500
CN1CC[C@@H](Nc2cccn3c(SC(F)(F)F)c(-c4noc(CNC(=O)[C@@H]5COCCN5C)n4)cc23)[C@@H](F)C1 [Example 69, (3S)—N-{[3-(8-{[(3S,4R)-3-fluoro-1-methylpiperidin-4-yl]amino}-3-[(trifluoromethyl)sulfanyl]indolizin-2-yl)-1,2,4-oxadiazol-5-yl]methyl}-4-methylmorpholine-3-carboxamide]	≥ 3000	10 to 100	≥ 3000
CN1CC[C@@H](Nc2cccn3c(SC(F)(F)F)c(-c4noc([C@@H](CO)NC(=O)C5CC5)n4)cc23)[C@@H](F)C1 [Example 53, N-[(1R)-1-[3-(8-{[(3S,4R)-3-fluoro-1-methylpiperidin-4-yl]amino}-3-[(trifluoromethyl)sulfanyl]indolizin-2-yl)-1,2,4-oxadiazol-5-yl]-2-hydroxyethyl]cyclopropanecarboxamide]	≥ 3000	10 to 100	≥ 3000
CNC(=O)c1coc(NCc2nc(-c3cc4c(N[C@@H]5CCN(C)C[C@@H]5F)cccn4c3SC(F)(F)F)no2)n1 [Example 81]	< 750	< 10	750 to 1500
CN1CC[C@@H](Nc2cccn3c(SC(F)(F)F)c(-c4cnc(CNC(=O)C5CC5)o4)cc23)[C@@H](F)C1 [Example 84]	≥ 3000	10 to 100	≥ 3000
CN1CC[C@@H](Nc2cccn3c(SC(F)(F)F)c(-c4noc(CNC(=O)c5nnc[nH]5)n4)cc23)[C@@H](F)C1 [Example 83]	–	–	750 to 1500
CN1CC[C@@H](Nc2cccn3c(SC(F)(F)F)c(-c4noc(CNC(=O)c5cnn(C)n5)n4)cc23)[C@@H](F)C1 [Example 79]	< 750	< 10	< 750
CN1CC[C@@H](Nc2cccn3c(SC(F)(F)F)c(-c4noc(CNC(=O)c5ncon5)n4)cc23)[C@@H](F)C1 [Example 74]	750 to 1500	< 10	1500 to 3000
CN1CC[C@@H](Nc2cccn3c(SC(F)(F)F)c(-c4noc(CNC(=O)c5ncn(C)n5)n4)cc23)[C@@H](F)C1 [Example 78]	< 750	< 10	< 750
CN1CC[C@@H](Nc2cccn3c(SC(F)(F)F)c(-c4noc(CNC(=O)c5cnn[nH]5)n4)cc23)[C@@H](F)C1 [Example 80]	1500 to 3000	< 10	1500 to 3000
CNC(=O)c1cnc(NCc2nc(-c3cc4c(N[C@@H]5CCN(C)C[C@@H]5F)cccn4c3SC(F)(F)F)no2)nc1 [Example 50, 2-({[3-(8-{[(3S,4R)-3-fluoro-1-methylpiperidin-4-yl]amino}-3-[(trifluoromethyl)sulfanyl]indolizin-2-yl)-1,2,4-oxadiazol-5-yl]methyl}amino)-N-methylpyrimidine-5-carboxamide]	< 750	< 10	750 to 1500
CN1CC[C@@H](Nc2cccn3c(SC(F)(F)F)c(-c4noc(CNC(=O)c5cnco5)n4)cc23)[C@@H](F)C1 [Example 72]	< 750	< 10	< 750
CN1CC[C@@H](Nc2cccn3c(SC(F)(F)F)c(-c4noc(CNC(=O)c5nnc(N(C)C)s5)n4)cc23)[C@@H](F)C1 [Example 82]	< 750	< 10	< 750
CN1CC[C@@H](Nc2cccn3c(SC(F)(F)F)c(-c4noc(CNC(=O)c5cnc[nH]5)n4)cc23)[C@@H](F)C1 [Example 73]	< 750	< 10	750 to 1500
CN1CC[C@@H](Nc2cccn3c(SC(F)(F)F)c(-c4noc(CNC(=O)c5ncn[nH]5)n4)cc23)[C@@H](F)C1 [Example 75]	750 to 1500	< 10	750 to 1500
CN1CC[C@@H](Nc2cccn3c(SC(F)(F)F)c(-c4noc(CNC(=O)[C@H]5COCCN5C)n4)cc23)[C@@H](F)C1 [Example 68, (3R)-N-{[3-(8-{[(3S,4R)-3-fluoro-1-methylpiperidin-4-yl]amino}-3-[(trifluoromethyl)sulfanyl]indolizin-2-yl)-1,2,4-oxadiazol-5-yl]methyl}-4-methylmorpholine-3-carboxamide]	≥ 3000	10 to 100	≥ 3000

Further lines, with some results ahead:

AC50 (p53 Y220C) [nM]	Kd [1] [nM]	Compound	IC50 (NUGC3 cells (p53 Y220C)) [nM]
< 750	< 10	COCC1(n2ccc(C(=O)NCc3nc(-c4cc5c(N[C@@H]6CCN(C)C[C@@H]6F)cccn5c4SC(F)(F)F)no3)c2)CC1 [Example 97]	–
< 750	< 10	CN1CC[C@@H](Nc2cccn3c(SC(F)(F)F)c(-c4noc(CNC(=O)c5ccn(C6(C)CCOCC6)c5)n4)cc23)[C@@H](F)C1 [Example 94]	< 750
< 750	< 10	CN1CC[C@@H](Nc2cccn3c(SC(F)(F)F)c(-c4noc(CNC(=O)c5ccn(CC(C)(C)O)c5)n4)cc23)[C@@H](F)C1 [Example 95]	–
< 750	< 10	CN1CC[C@@H](Nc2cccn3c(SC(F)(F)F)c(-c4cc(CNC(=O)c5cnc(N(C)C)o5)no4)cc23)[C@@H](F)C1 [Example 90]	–
< 750	< 10	CN1CC[C@@H](Nc2cccn3c(SC(F)(F)F)c(-c4cc(CNC(=O)c5cnc(N(C)C)s5)no4)cc23)[C@@H](F)C1 [Example 92]	–
< 750	< 10	CN1CC[C@@H](Nc2cccn3c(SC(F)(F)F)c(-c4cc(CNC(=O)c5cnn(C(C)(C)C)c5)no4)cc23)[C@@H](F)C1 [Example 89]	< 750
< 750	10 to 100	CN1CC[C@@H](Nc2cccn3c(SC(F)(F)F)c(-c4cc(CNC(=O)c5cnn(C(C)(C)C)c5)on4)cc23)[C@@H](F)C1 [Example 88]	–
< 750	< 10	CN1CC[C@@H](Nc2cccn3c(SC(F)(F)F)c(-c4noc(CNC(=O)c5nsc(N(C)C)n5)n4)cc23)[C@@H](F)C1 [Example 93]	< 750
< 750	< 10	CN1CC[C@@H](Nc2cccn3c(SC(F)(F)F)c(-c4noc(CNC(=O)c5ccn(C)c5)n4)cc23)[C@@H](F)C1 [Example 86]	–
750 to 1500	< 10	Cc1noc(C(=O)NCc2nc(-c3cc4c(N[C@@H]5CCN(C)C[C@@H]5F)cccn4c3SC(F)(F)F)no2)n1 [Example 98]	750 to 1500
< 750	< 10	CN1CC[C@@H](Nc2cccn3c(SC(F)(F)F)c(-c4noc(CNC(=O)c5noc(N(C)C)n5)n4)cc23)[C@@H](F)C1 [Example 91]	–
< 750	< 10	CN1CC[C@@H](Nc2cccn3c(SC(F)(F)F)c(-c4noc(CNC(=O)c5ccn(CCF)c5)n4)cc23)[C@@H](F)C1 [Example 96]	–
750 to 1500	< 10	CN1CC[C@@H](Nc2cccn3c(SC(F)(F)F)c(-c4cc(CNC(=O)C5CC5)no4)cc23)[C@@H](F)C1 [Example 87]	–
